{"source": "patent US12637520B2", "about": "“Conjugation chemistry for catalytic antibody 38C2” (UNIVERSITY OF FLORIDA RESEARCH FOUNDATION, INCORPORATED, priority 2019, dated 2026)", "origin": "cited, not measured here", "molecular_target": "open conformation of integrin α4β1 (Homo sapiens, UniProt P05556+P13612)", "sequence (P13612 34-1032)": "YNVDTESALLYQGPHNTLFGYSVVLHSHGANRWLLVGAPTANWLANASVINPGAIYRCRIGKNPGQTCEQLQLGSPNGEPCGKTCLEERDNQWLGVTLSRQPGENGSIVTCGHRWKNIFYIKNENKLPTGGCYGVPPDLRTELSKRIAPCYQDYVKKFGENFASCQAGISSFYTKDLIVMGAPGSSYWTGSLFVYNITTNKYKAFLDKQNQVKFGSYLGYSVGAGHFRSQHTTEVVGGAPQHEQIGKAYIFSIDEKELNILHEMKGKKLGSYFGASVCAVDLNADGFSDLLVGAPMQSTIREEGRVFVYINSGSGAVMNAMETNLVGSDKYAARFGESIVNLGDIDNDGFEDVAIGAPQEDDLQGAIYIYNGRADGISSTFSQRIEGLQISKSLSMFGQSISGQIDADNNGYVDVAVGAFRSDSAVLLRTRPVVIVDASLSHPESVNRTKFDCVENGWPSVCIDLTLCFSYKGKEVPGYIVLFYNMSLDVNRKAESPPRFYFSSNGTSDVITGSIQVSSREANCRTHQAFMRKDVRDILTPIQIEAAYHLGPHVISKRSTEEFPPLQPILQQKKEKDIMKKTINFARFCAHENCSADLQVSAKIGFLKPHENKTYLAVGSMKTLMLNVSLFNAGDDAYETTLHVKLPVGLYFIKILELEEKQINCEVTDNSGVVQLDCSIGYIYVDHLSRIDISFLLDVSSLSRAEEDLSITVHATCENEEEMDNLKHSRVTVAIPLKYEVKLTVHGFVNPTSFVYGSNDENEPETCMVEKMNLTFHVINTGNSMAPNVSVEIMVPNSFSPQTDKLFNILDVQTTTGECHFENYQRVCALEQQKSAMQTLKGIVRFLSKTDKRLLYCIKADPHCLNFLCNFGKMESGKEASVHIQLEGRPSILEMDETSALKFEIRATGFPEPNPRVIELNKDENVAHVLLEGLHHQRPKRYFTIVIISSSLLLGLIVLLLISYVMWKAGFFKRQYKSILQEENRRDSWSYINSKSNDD", "sequence (P05556 21-798)": "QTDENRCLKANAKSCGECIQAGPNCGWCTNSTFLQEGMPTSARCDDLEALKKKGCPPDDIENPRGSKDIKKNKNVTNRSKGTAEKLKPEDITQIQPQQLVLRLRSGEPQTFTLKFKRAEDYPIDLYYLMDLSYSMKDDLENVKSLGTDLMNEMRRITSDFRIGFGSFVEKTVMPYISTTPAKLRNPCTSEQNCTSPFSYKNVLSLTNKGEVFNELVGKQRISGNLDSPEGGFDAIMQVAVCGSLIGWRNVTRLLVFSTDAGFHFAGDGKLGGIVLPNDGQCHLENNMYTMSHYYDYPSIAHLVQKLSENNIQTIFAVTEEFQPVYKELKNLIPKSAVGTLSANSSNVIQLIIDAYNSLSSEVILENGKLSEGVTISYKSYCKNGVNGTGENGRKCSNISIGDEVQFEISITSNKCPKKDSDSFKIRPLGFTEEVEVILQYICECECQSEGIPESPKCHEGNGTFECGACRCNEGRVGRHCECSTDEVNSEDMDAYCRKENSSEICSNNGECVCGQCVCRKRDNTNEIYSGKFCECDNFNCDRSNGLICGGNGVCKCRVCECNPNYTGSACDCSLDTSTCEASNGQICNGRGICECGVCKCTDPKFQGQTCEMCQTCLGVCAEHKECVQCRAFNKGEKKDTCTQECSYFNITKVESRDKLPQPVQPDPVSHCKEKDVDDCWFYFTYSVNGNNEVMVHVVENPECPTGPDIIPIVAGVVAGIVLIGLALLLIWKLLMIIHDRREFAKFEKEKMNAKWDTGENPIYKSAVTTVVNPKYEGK", "conditions": "cited from earlier work"}
{"smiles": "Cc1ccccc1NC(=O)Nc1ccc(CC(=O)N[C@@H](CCCCNC(=O)/C=C/c2cccnc2)C(=O)N[C@@H](CCCC(=O)O)C(=O)NC2(C(N)=O)CCCCC2)cc1", "note": "[LLP2A]", "values": [{"measurement": "affinity for open conformation of integrin α4β1", "result": "picomolar-affinity"}]}
